Test results taken from US20240317761A1, “PHARMACEUTICALLY ACCEPTABLE SALT OF MOR RECEPTOR AGONIST, AND POLYMORPH THEREOF AND USE THEREOF” (SHANGHAI HAIYAN PHARMACEUTICAL TECHNOLOGY CO., LTD., priority 2021, published 2024).

What was measured:
[1] = target: T1, OPRM1 (MOR) in PathHunter CHO-K1 OPRM1 β-Arrestin Cell Line (Homo sapiens, UniProt P35372); assay: HTRF-cAMP cell assay; type: cell-based
T1 construct: host or cells: CHO-K1 (PathHunter engineered line, lot 13K0402)
Description: The cell line used in the following tests was PathHunter® CHO-K1 OPRM1 β-Arrestin Cell Line; origin: DiscoverX, No: 93-0213 C2; lot: 13K0402.
The reagents used, their suppliers, article numbers, and storage temperatures are as follows: • Assay Complete™ Cell Culture Kit 107, DiscoverX, 92-3107G, −20° C.; • AssayComplete™ Thawing Reagent, DiscoverX, 92-4002TR, −20° C.; • AssayComplete™ Cell Detachment Reagent, DiscoverX, 92-0009, −20° C.; • Assay Complete™ Cell Plating Reagent, DiscoverX, 93-0563R2, −20° C.; • PathhunterDetection Kit, DiscoverX, 93-0001, −20° C.; • PBS(1×)0.0067M(PO4), Hyclone, SH30256.01, 4° C.; • DMSO, Sigma, D5879-100 ML, ambient temperature; • NKH477, Sigma, 1603, −20° C.; and • IBMX, Tocris, 15879, −20° C.
(§1) The instruments used, their models and suppliers are as follows: • Countsatr BioMed, IM1200, ALIT; • Microscope, IX51, OLYMPUS; • Centrifuge, 5804, Eppendorf; • Thermostatic Water Bath, DK-S420, ShanghaiShenxian thermostatic equipment factory; • Cell Incubator, 3111, Thermo; • Biological Safety Cabinet, BSC-1300IIA2, AIRTECH; • OptiPlate-384White Opaque, 6007290, Perkin Elmer; • Multimode plate Reader, Victor X5, PerkinElmer; • Culture Plate-384 White Opaque, TC-treated, 6007680, PerkinElmer.
1. Cell passaging steps a to h were repeated until the cells passed to the P8 generation. Cells were counted and resuspended in 2×/1 mM IBMX stimulation buffer to a cell density of 1.2*10^6/ml.
2. 1.2*10^6/ml of cell solution was seeded in a 384-well plate in a volume of 10 μl per well (i.e. 12000 cells per well) by using a multichannel pipettor.
1. Relevant reagents were prepared and the compounds were prepared according to the drug dilution preparation table.
a. […]
g. The plate was read by HTRF.
After 60 minutes of incubation, for all samples, reading plates were detected by homogeneous time-resolved fluorescence method.
The data were exported from the corresponding software in the computer connected with the multi-function plate reader, including two signal values of 665 nm and 620 nm. The ratio is calculated as ratio=665 nm signal value/620 nm signal value×10000. […]

[2] = target: T1, OPRM1 (MOR) in PathHunter CHO-K1 OPRM1 β-Arrestin Cell Line; assay: β-Arrestin cell assay; type: cell-based
Description: The cell line used in the following tests was PathHunter® CHO-K1 OPRM1 β-Arrestin Cell Line; origin: DiscoverX, No: 93-0213 C2; lot: 13K0402. […]
as §1, with “PerkinElmer. […]” for “PerkinElmer.”
1. 20 μl of the cell suspension was pipetted using a pipette and the number of the cells was measured using a cell counter. […]
3. At the end of incubation, the plates were read using a multi-function plate reader.
The data were exported from the corresponding software in the computer connected with the multi-function plate reader, and the data were analyzed by using GraphPad Prism software. […]

[3] = maximum effect relative to morphine = 100%

T1 sequence (P35372 whole entry): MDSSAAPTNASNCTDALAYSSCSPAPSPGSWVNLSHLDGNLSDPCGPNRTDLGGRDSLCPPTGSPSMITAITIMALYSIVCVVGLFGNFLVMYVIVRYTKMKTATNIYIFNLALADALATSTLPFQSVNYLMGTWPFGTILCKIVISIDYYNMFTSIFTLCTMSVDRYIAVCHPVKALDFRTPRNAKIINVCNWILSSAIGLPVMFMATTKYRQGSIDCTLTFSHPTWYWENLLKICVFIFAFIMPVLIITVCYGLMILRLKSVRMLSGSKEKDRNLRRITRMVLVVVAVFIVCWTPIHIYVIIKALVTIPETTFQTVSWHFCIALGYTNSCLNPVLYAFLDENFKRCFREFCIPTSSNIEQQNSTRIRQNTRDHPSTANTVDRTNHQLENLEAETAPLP

## CC(C)C1CCC(NCC[C@@]2(c3ccccn3)CCOC3(CCCC3)C2)c2ccnn21 (some centres unmarked) [Comparative compound D1]
[1]
  EC50: 0.019 µM
[1]; [3]
  Emax: 52.6%
[2]; [3]
  Emax: 28.3%

## CC(C)[C@@H]1C[C@H](NCC[C@@]2(c3ccccn3)CCOC3(CCCC3)C2)c2ccnn21 [Compound of formula X, (4S,6S)-6-isopropyl-N-(2-((R)-9-(pyridin-2-yl)-6-oxaspiro[4.5]decane-9-yl)ethyl)-5,6-dihydro-4H-pyrrolo[1,2-b]pyrazol-4-amine]
[1]
  EC50: 0.006 µM
[2]; compared with comparative compound D1, from Tables 5 and 6
  bias (cAMP versus β-arrestin): better bias
